Laboratory results: patent publication US20160326098A1, “Pharmaceutically Active Compound for Use as Anti-inflammatory Agent” (Pax Forschung GmbH, priority 2013, published 2016)

What was measured:
Format in all cases: in vivo
[1] = tested on: High mobility group box protein 1 (HMGB-1); experiment: Plasma high-mobility group protein B1, rats with TNBS-induced colitis; conditions: 1.11 mmol/kg, day 3, FIG. 31
Protocol: (§1) Colonic inflammation was induced by intracolonic administration of TNBS (2,4,6-trinitrobenzenesulfonic acid) (40 mg/kg in 0.25 ml of 25% aqueous ethanol) through an 8-cm-long soft plastic catheter under transient diethylether anesthesia. In the sham-operated groups, only the vehicle for TNBS was administered. The animals were deprived of food, but not water, for 12 h before the enemas.
High mobility group box protein 1 (HMGB-1) measurements in plasma:
Blood samples were drawn into chilled polypropylene tubes containing EDTA (1 mg/ml) and were centrifuged at 1200 g for 10 min at 4° C. The plasma samples were then collected and stored at −70° C. until assay. Plasma concentration of HMGB-1 was measured by a commercially available HMGB-1 ELISA kit (Shino-Test Corporation, Kanagawa, Japan).
The above-described clinical studies were repeated with animals having colitis which was induced as described above. […] Two days after the enema the effects of the treatment were determined by measurement of body weight, blood gas analysis and biopsy. […] Surgery was performed to allow registration of the hemodynamic parameters at 1 h intervals for 6 h (cardiac output [CO] data were measured only at the end of the experiments). […]

[2] = Haematocrit in blood, rats with TNBS-induced colitis; conditions: 1.11 mmol/kg, vs groups L and M, FIG. 28
Protocol: as §1
(§2) The above-described clinical studies were repeated with animals having colitis which was induced as described above. […] Two days after the enema the effects of the treatment were determined by measurement of body weight, blood gas analysis and biopsy. […] Surgery was performed to allow registration of the hemodynamic parameters at 1 h intervals for 6 h (cardiac output [CO] data were measured only at the end of the experiments). […] In addition, fluorescence confocal endomicroscopy was performed to examine the microvasculature and morphologic changes of the mucosa of the distal colon, and full-thickness tissue samples and venous blood samples were taken to determine the biochemical changes in the colon and plasma.

[3] = tested on: collagen-induced arthritis (CIA); experiment: Collagen-induced arthritis (CIA), clinical evaluation; conditions: mice, 1.11 mmol/kg force-fed from first immunization until end
Protocol: Further clinical studies were performed with animals having collagen-induced arthritis (CIA). In these studies, mice were used as test animals. At the age of eight weeks, the animals were immunized intradermally at the base of the tail with 50 μl of bovine collagen II emulsified in 50 μl of complete Freund's adjuvant. A second booster immunization was performed 3 weeks later, when 50 μl of incomplete Freund's adjuvant was administered with or without the same volume of collagen H. The animals were randomly allocated into experimental groups wherein group 1 served as control, having no arthritis, group 2 served as second control having arthritis, but receiving no further treatment, and group 3 having arthritis and being treated with compound according to the invention. The animals of group 3 were force-fed 1.11 mmol/kg body weight of the compound according to the invention from the first immunization until the end of the experiments. The severity of CIA was evaluated using a clinical scoring system; inflammatory hyperalgesia was detected with thermal stimulation. […]

TNF-α = experiment: Plasma TNF-α level, rats with TNBS-induced colitis; conditions: 1.11 mmol/kg, vs untreated colitis group M, FIG. 30
Protocol: as §1
Plasma TNF-α concentrations were determined in duplicate by means of a commercially available enzyme-linked immunosorbent assay (Quantikine ultrasensitive enzyme-linked immunosorbent assay kit for rat TNF-α; Biomedica Hungaria Kft, Budapest, Hungary). […]
as §2

myeloperoxidase (MPO) = experiment: Tissue myeloperoxidase activity, rats with TNBS-induced colitis; conditions: gastric and colon tissue, one day after 1.11 mmol/kg, vs untreated colitis and ASS groups, FIGS. 32a/32b
Protocol: as §1
Colon biopsies kept on ice were homogenized in phosphate buffer (pH 7.4) containing 50 mM Tris-HCl (Reanal, Budapest, Hungary), 0.1 mM EDTA, 0.5 mM dithiothreitol, 1 mM phenylmethylsulfonyl fluoride, 10 μg/ml soybean trypsin inhibitor, and 10 μg/ml leupeptin (Sigma Aldrich GmbH, Munich, Germany). […] The activity of myeloperoxidase (MPO) was measured on the pellet of the homogenate.
The activity of MPO as a marker of tissue leukocyte infiltration was measured on the pellet of the homogenate. […] The reaction led to the hydrogen peroxide-dependent oxidation of tetramethylbenzidine, which could be detected spectrophotometrically at 450 nm (UV-1601 spetrophotometer; Shimadzu, Kyoto, Japan). Myeloperoxidase activities were measured at 37° C.; the reaction was stopped after 5 minutes by the addition of 0.2 ml of H2SO4 (2 M), and the resulting data were referred to the protein content. […]

CC(=O)Oc1ccccc1C(=O)NC(CO)(CO)CO [compound according to the invention]
concentration of the high-mobility group protein B1 in the plasma [1]: significant reduction | haematocrit level in the blood [2]: slightly higher | severity of CIA (clinical scoring system of Nandakumar) ([3]; vs untreated arthritis group 2, FIG. 36): less serious arthritis | incidence of CIA ([3]; same in untreated arthritis group 2, FIG. 36): 90% | plasma TNF-α level (TNF-α): significant decrease in the TNF-α level | myeloperoxidase enzyme activity (myeloperoxidase (MPO)): decrease of activity
